In the SangsterLogP compilation:

Test: method code SF, from DOI: 10.1016/0223-5234(96)88223-7

SMILES | logP
Cc1ccc(-c2nc3ccccc3[nH]2)cc1 | 3.67
CCc1ccc(-c2nc3ncccc3[nH]2)cc1 | 3.42
Clc1ccc(-c2nc3ncccc3[nH]2)cc1 | 2.95
Cc1ccc(-c2nc3ccc([N+](=O)[O-])cc3[nH]2)c(C)c1 | 4.1
COc1ccccc1-c1nc2ccccc2[nH]1 | 3.02
CC(C)(C)c1ccc(-c2nc3ncccc3[nH]2)cc1 | 4.82
Fc1ccc(-c2nc3ncccc3[nH]2)cc1 | 2.52
Cc1ccc(-c2nc3ncccc3[nH]2)cc1 | 3.02
Cc1ccccc1-c1nc2ccc([N+](=O)[O-])cc2[nH]1 | 3.42
COc1ccc(-c2nc3ccc(C)cc3[nH]2)c(OC)c1 | 3.78

Further lines, results first:

logP | SMILES
5.38 | Clc1ccc2nc(Cc3ccc(Br)cc3)[nH]c2c1
5.21 | Cc1ccc(Cc2nc3ccc(Cl)cc3[nH]2)cc1
5.18 | Clc1ccc(Cc2nc3ccc(Cl)cc3[nH]2)cc1
3.48 | COc1ccc(Cc2nc3ccc([N+](=O)[O-])cc3[nH]2)cc1
3.2 | Nc1ccc(Cc2nc3ccc(Cl)cc3[nH]2)cc1
